Laboratory results reported in patent publication US8703957B2 (Janssen Pharmaceutica NV, priority 2001, dated 2014).

Key:
[1] = tested on: Ascaris suum antigen-induced asthmatic response in conscious sheep; assay: Ascaris suum antigen-induced asthmatic response in conscious sheep: specific lung resistance and airway hyperreactivity; format: in vivo
Method: The efficacy of Compound 2 for the treatment of asthma was evaluated in a validated model of Ascaris suum antigen-induced asthmatic response in conscious sheep (Abraham, W. M., Pharmacology of allergen-induced early and late airway responses and antigen-induced airway hyperresponsiveness in allergic sheep, Pulmonary Pharmacology, 1989, 2, 33-40).
(§1) Baseline dose response curves to aerosol carbachol were obtained 1-3 days prior to antigen challenge. Baseline values of specific lung resistance (SRL) were obtained and the sheep were then given a specified amount (mg) of the test compound as an inhaled aerosol at a specified time before antigen challenge. Post drug measurements of SRL were obtained and the sheep were then challenged with Ascaris suum antigen. Measurements of SRL were obtained immediately after challenge, hourly from 1-6 h after challenge and on the half-hour from 6½-8 h after challenge. Measurements of SRL were obtained 24 h after challenge followed by a 24 h post-challenge with carbachol to measure airway hyperreactivity.
Compound 2 was administered as an aerosol at 0.1 mg/Kg/dose, twice-a-day (BID) for three consecutive days, followed by a dose on day 4, 0.5 h prior to antigen challenge. Ascaris suum antigen challenge was given at the zero time point.

[2] = tested on: inflammatory cell numbers in the broncho-alveolar lavage (BAL) fluid; assay: Inflammatory cell counts in broncho-alveolar lavage (BAL) fluid of antigen-challenged sheep; format: in vivo
Method: as §1, with “hyperreactivity. […] Ascaris suum antigen challenge was given at the zero time point.” for “hyperreactivity.”

[3] = tested on: inflammatory cell numbers in the broncho-alveolar lavage (BAL) fluid; assay: as above; format: in vivo; settings: 1.0 mg/kg × 4 days, last dose 30 min prior to antigen challenge
human skin chymase = target: T1, human skin chymase (Homo sapiens, UniProt P23946); assay: Enzyme-catalyzed hydrolysis assay, chymase (chromogenic substrate Suc-Ala-Ala-Pro-Phe-pNa); format: biochemical; settings: 10 nM enzyme, 0.7 mM substrate, pH 8.0, 37° C., 30 minutes
T1 construct: human skin chymase (Cortex Biochem); purchased Cortex Biochem; host or cells: human skin (from the enzyme's name)
T1 sequence (P23946 22-247): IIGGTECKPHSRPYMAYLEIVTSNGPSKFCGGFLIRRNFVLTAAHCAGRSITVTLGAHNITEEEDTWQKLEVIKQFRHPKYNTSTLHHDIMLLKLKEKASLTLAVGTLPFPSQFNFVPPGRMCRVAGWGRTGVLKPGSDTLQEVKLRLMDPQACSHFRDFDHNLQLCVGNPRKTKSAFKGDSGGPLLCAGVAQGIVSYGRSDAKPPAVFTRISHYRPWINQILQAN
Method: (§2) Enzyme-catalyzed hydrolysis rates were measured spectrophotometrically using human neutrophil cathepsin G (Athens Research and Technology) or human skin chymase (Cortex Biochem), a chromogenic substrate (Suc-Ala-Ala-Pro-Phe-pNa) (Bachem) in aqueous buffer (100 mM Hepes, 500 mM NaCl, pH 7.4 for catG; 450 mM Tris, 1800 mM NaCl, pH 8.0 for chymase), and a microplate reader (Molecular Devices). […] Percent inhibition was calculated by comparing the initial reaction slopes of the samples without inhibitor to those with inhibitor. IC50 values were determined using a four parameter fit logistics model. The term “NT” indicates a compound that was not tested.

[4] = target: T2, human neutrophil cathepsin G (Homo sapiens, UniProt P08311); assay: Enzyme-catalyzed hydrolysis assay, cathepsin G (chromogenic substrate Suc-Ala-Ala-Pro-Phe-pNa); format: biochemical; settings: 70 nM enzyme, 5 mM substrate, pH 7.4, 37° C., 30 minutes; read-out: IC50 (μM) CatG
T2 construct: human neutrophil cathepsin G (Athens Research and Technology); purchased Athens Research and Technology; host or cells: human neutrophils (from the enzyme's name)
T2 sequence (P08311 21-243 limits assumed): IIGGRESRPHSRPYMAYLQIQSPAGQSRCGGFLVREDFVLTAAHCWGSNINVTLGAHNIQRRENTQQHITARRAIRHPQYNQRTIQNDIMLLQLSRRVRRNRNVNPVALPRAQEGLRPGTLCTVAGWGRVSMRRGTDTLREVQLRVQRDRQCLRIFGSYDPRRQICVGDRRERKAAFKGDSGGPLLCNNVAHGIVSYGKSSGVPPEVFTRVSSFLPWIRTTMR
Method: as §2

[5] = 8 h Post Antigen, 1.0 mg/kg × 4 days, last dose 30 min prior to antigen challenge
[6] = 24 h Post Antigen, 1.0 mg/kg × 4 days, last dose 30 min prior to antigen challenge
[7] = Baseline, 1.0 mg/kg × 4 days, last dose 30 min prior to antigen challenge

Compound	IC50 (human skin chymase) [µM]	IC50 [4] [µM]	other results
CN(C(=O)c1cc2ccccc2cc1C(=O)C(c1cccc2ccccc12)P(=O)(O)O)C1CCN(C(=O)c2ccc3ccccc3c2)CC1 (stereo not shown) [Compound 2, [2-[3-[[methyl[1-(2-naphthalenylcarbonyl)-4-piperidinyl]amino]carbonyl]-2-naphthalenyl]-1-(1-naphthalenyl)-2-oxoethyl]-phosphonic acid]			early airway response (specific lung resistance, SRL) ([1]; 0-2 h after antigen challenge, aerosol 0.1 mg/Kg/dose BID for three days plus dose on day 4, 0.5 h prior to challenge, n=4 sheep/group, FIG. 1): dramatically reduced; late airway response (specific lung resistance, SRL) ([1]; 6-8 h after antigen challenge, aerosol 0.1 mg/Kg/dose BID for three days plus dose on day 4, 0.5 h prior to challenge, n=4 sheep/group, FIG. 1): completely blocked; delayed airway hyperreactivity measured using carbachol challenge (PC 400) ([1]; 24 h post antigen challenge, FIG. 2): completely blocked; BAL Cell Count Lymphocytes [2, 5]: 4.16 ± 1.10 × 1000/mL; BAL Cell Count Neutrophils [2, 5]: 3.17 ± 0.65 × 1000/mL; BAL Cell Count Lymphocytes [2, 6]: 3.72 ± 0.77 × 1000/mL; BAL Cell Count Macrophages [2, 6]: 75.16 ± 2.71 × 1000/mL; BAL Cell Count Eosinophils [2, 7]: 0.00 × 1000/mL; BAL Cell Count Macrophages [2, 7]: 69.06 ± 1.97 × 1000/mL; BAL Cell Count Neutrophils [2, 7]: 12.66 ± 2.07 × 1000/mL; rise in inflammatory cell numbers in the broncho-alveolar lavage (BAL) fluid ([2]; after antigen challenge, sheep, summary of Table 5): blocked; BAL Cell Count Eosinophils ([3]; 8 h Post Antigen): 0.37 ± 0.32 × 1000/mL; BAL Cell Count Macrophages ([3]; 8 h Post Antigen): 77.85 ± 2.36 × 1000/mL; BAL Cell Count Eosinophils ([3]; 24 h Post Antigen): 0.04 ± 0.03 × 1000/mL; BAL Cell Count Neutrophils ([3]; 24 h Post Antigen): 3.86 ± 0.95 × 1000/mL; BAL Cell Count Lymphocytes ([3]; Baseline): 3.15 ± 0.79 × 1000/mL
O=C(NC1CCN(C(=O)c2ccc3ccccc3c2)CC1)c1cc2ccccc2cc1C(=O)C(c1cccc2ccccc12)P(=O)(O)O (stereo not shown) [Compound 30, [1-(1-naphthalenyl)-2-[3-[[[1-(2-naphthalenylcarbonyl)-4-piperidinyl]amino]carbonyl]-2-naphthalenyl]-2-oxoethyl]-phosphonic acid]	0.0158 ± 0.0008	0.59 ± 0.04	
CN(C(=O)c1ccccc1C(=O)C(c1cccc2ccccc12)P(=O)(O)O)C1CCN(C(=O)c2ccc3ccccc3c2)CC1 (stereo not shown) [Compound 31, [2-[2-[[methyl[1-(2-naphthalenylcarbonyl)-4-piperidinyl]amino]carbonyl]phenyl]-1-(1-naphthalenyl)-2-oxoethyl]-phosphonic acid]	15 ± 0.67	> 100	
CN(C(=O)c1cc2ccccc2cc1C(=O)C(c1cccc2ccccc12)P(C)(=O)O)C1CCN(C(=O)c2ccc3ccccc3c2)CC1 (stereo not shown) [Compound 32, methyl[2-[3-[[methyl[1-(2-naphthalenylcarbonyl)-4-piperidinyl]amino]carbonyl]-2-naphthalenyl]-1-(1-naphthalenyl)-2-oxoethyl]-phosphinic acid]	0.31	0.86 ± 0.03	
CN(C(=O)c1cc2ccccc2cc1C(=O)C(c1csc2ccc(Cl)cc12)P(=O)(O)O)C1CCN(C(=O)c2ccc3ccccc3c2)CC1 (stereo not shown) [Compound 33, [1-(5-chlorobenzo[b]thien-3-yl)-2-[3-[[methyl[1-(2-naphthalenylcarbonyl)-4-piperidinyl]amino]carbonyl]-2-naphthalenyl]-2-oxoethyl]-phosphonic acid]	0.001	0.121 ± 0.007	
O=C(NC1CCN(C(=O)c2cc3ccccc3cc2C(=O)C(c2cccc3ccccc23)P(=O)(O)O)CC1)c1ccc2ccccc2c1 (stereo not shown) [Compound 34]	0.007 ± 0.001	0.09 ± 0.04	
[2-[3-[(cyclohexylmethylamino)carbonyl]-2-naphthalenyl]-1-(1-naphthalenyl)-2-oxoethyl]-phosphonic acid [Compound 17]	0.0072 ± 0.0015	0.098 ± 0.026	
[2-[3-[(cyclopentylmethylamino)carbonyl]-2-naphthalenyl]-1-(1-naphthalenyl)-2-oxoethyl]-phosphonic acid [Compound 21]	0.0096 ± 0.0034	0.07 ± 0.02	
[2-[3-[[(1-acetyl-4-piperidinyl)methylamino]carbonyl]-2-naphthalenyl]-1-(1-naphthalenyl)-2-oxoethyl]-phosphonic acid [Compound 26]	0.015 ± 0.001	0.096 ± 0.018	
[2-[3-[[[1-[(2E)-3-(4-fluorophenyl)-1-oxo-2-propenyl]-3-pyrrolidinyl]methylamino]carbonyl]-2-naphthalenyl]-1-(1-naphthalenyl)-2-oxoethyl]-phosphonic acid [Compound 5]	0.2 ± 0.4	0.072 ± 0.021	
[2-[3-[[[1-[(6-hydroxy-2-naphthalenyl)carbonyl]-4-piperidinyl]methylamino]carbonyl]-2-naphthalenyl]-1-(1-naphthalenyl)-2-oxoethyl]-phosphonic acid [Compound 24]	0.0035 ± 0.0013	0.078 ± 0.015	
[2-[3-[[[1-[(6-methoxy-2-naphthalenyl)carbonyl]-3-pyrrolidinyl]methylamino]carbonyl]-2-naphthalenyl]-1-(1-naphthalenyl)-2-oxoethyl]-phosphonic acid [Compound 3]	0.072 ± 0.008	0.068 ± 0.019	
[2-[3-[[[4-(1,1-dimethylethyl)cyclohexyl]methylamino]carbonyl]-2-naphthalenyl]-1-(1-naphthalenyl)-2-oxoethyl]-phosphonic acid [Compound 22]	0.009 ± 0.023	0.14 ± 0.04	
